From PubChem BioAssay (NCI)
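Test compounds were applied to cells in 96-well plates for 48 hours at 5 doses. The concentration for 50% growth inhibition is given as GI50. TGI: total growth inhibition.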

Experiments:
Assay in all cases: NCI anticancer screen, dose series, 48 h
[1] = test system: 786-0 renal
[2] = test system: A498 renal
[3] = test system: A549 NSCLC
[4] = test system: ACHN renal
[5] = test system: BT-549 breast
[6] = test system: CAKI-1 renal
[7] = test system: COLO 205 colon
[8] = test system: DU-145 prostate
[9] = test system: EKVX NSCLC
[10] = test system: HCC-2998 colon
[11] = test system: HCT-116 colon
[12] = test system: HCT-15 colon
[13] = test system: HL-60(TB) leukemia
[14] = test system: HOP-62 NSCLC
[15] = test system: HOP-92 NSCLC
[16] = test system: HS 578T breast
[17] = test system: HT29 colon
[18] = test system: IGROV1 ovarian
[19] = test system: K-562 leukemia
[20] = test system: KM12 colon
[21] = test system: LOX IMVI melanoma
[22] = test system: M14 melanoma
[23] = test system: MALME-3M melanoma
[24] = test system: MCF7 breast
[25] = test system: MDA-MB-231 breast
[26] = test system: MDA-MB-435
[27] = test system: MOLT-4 leukemia
[28] = test system: NCI-H226 lung
[29] = test system: NCI-H23 lung
[30] = test system: NCI-H460 lung
[31] = test system: NCI-H522 lung
[32] = test system: NCI/ADR-RES ovarian
[33] = test system: OVCAR-3 ovarian
[34] = test system: OVCAR-4 ovarian
[35] = test system: OVCAR-5 ovarian
[36] = test system: OVCAR-8 ovarian
[37] = test system: PC-3 prostate
[38] = test system: RPMI-8226 leukemia
[39] = test system: RXF 393 renal
[40] = test system: SF-268 CNS
[41] = test system: SF-295 CNS
[42] = test system: SF-539 CNS
[43] = test system: SK-MEL-2 melanoma
[44] = test system: SK-MEL-28 melanoma
[45] = test system: SK-MEL-5 melanoma
[46] = test system: SK-OV-3 ovarian
[47] = test system: SN12C renal
[48] = test system: SNB-19 CNS
[49] = test system: SW-620 colon
[50] = test system: T-47D breast
[51] = test system: TK-10 renal
[52] = test system: U251 CNS
[53] = test system: UACC-257 melanoma
[54] = test system: UACC-62 melanoma
[55] = test system: UO-31 renal

## Cc1cc[c-]cc1.Fc1c[c-]c(-c2ccccn2)c(F)c1.[Pt+2].c1ccc(P(C[PH+](c2ccccc2)c2ccccc2)c2ccccc2)cc1
[1]
  GI50: 2.92 µM
  TGI: 10.1 µM
[2]
  GI50: 2.04 µM
  TGI: 6.11 µM
[3]
  GI50: 1.43 µM
  TGI: 12.1 µM
[4]
  GI50: 2.89 µM
  TGI: 9.84 µM
[5]
  GI50: 2.62 µM
  TGI: 12.2 µM
[6]
  GI50: 2.43 µM
  TGI: 9.03 µM
[7]
  GI50: 1.84 µM
  TGI: 3.76 µM
[8]
  GI50: 2.99 µM
  TGI: 12.8 µM
[9]
  GI50: 2.32 µM
  TGI: 12.7 µM
[10]
  GI50: 2.96 µM
  TGI: 12.1 µM
[11]
  GI50: 2.65 µM
  TGI: 11.2 µM
[12]
  GI50: 3.21 µM
  TGI: 12.6 µM
[13]
  GI50: 2.36 µM
  TGI: 6.88 µM
[14]
  GI50: 2.84 µM
  TGI: 10.7 µM
[15]
  GI50: 1.57 µM
  TGI: 4.97 µM
[16]
  GI50: 2.61 µM
  TGI: 9.94 µM
[17]
  GI50: 2.61 µM
  TGI: 12.4 µM
[18]
  GI50: 2.11 µM
  TGI: 12.2 µM
[19]
  GI50: 1.56 µM
  TGI: 12.2 µM
[20]
  GI50: 2.4 µM
  TGI: 9.23 µM
[21]
  GI50: 2.19 µM
  TGI: 6.24 µM
[22]
  GI50: 2.91 µM
  TGI: 13.7 µM
[23]
  GI50: 1.7 µM
  TGI: 5.06 µM
[24]
  GI50: 2.33 µM
  TGI: 7.83 µM
[25]
  GI50: 2.6 µM
  TGI: 8.47 µM
[26]
  GI50: 2.18 µM
  TGI: 6.2 µM
[27]
  GI50: 3.35 µM
  TGI: 12.2 µM
[28]
  GI50: 2.93 µM
  TGI: 11.6 µM
[29]
  GI50: 2.21 µM
  TGI: 8.67 µM
[30]
  GI50: 1.77 µM
  TGI: 7.1 µM
[31]
  GI50: 2.12 µM
  TGI: 8.27 µM
[32]
  GI50: 13.9 µM
  TGI: 48.2 µM
[33]
  GI50: 1.72 µM
  TGI: 10.6 µM
[34]
  GI50: 2.17 µM
  TGI: 9.4 µM
[35]
  GI50: 2.99 µM
  TGI: 11.9 µM
[36]
  GI50: 2.68 µM
  TGI: 15.4 µM
[37]
  GI50: 1.76 µM
  TGI: 11.7 µM
[38]
  GI50: 0.719 µM
  TGI: 4.38 µM
[39]
  GI50: 2.45 µM
  TGI: 8.64 µM
[40]
  GI50: 2.9 µM
  TGI: 13.5 µM
[41]
  GI50: 2.56 µM
  TGI: 10.2 µM
[42]
  GI50: 3.34 µM
  TGI: 12.4 µM
[43]
  GI50: 2.36 µM
  TGI: 6.61 µM
[44]
  GI50: 2.86 µM
  TGI: 10.3 µM
[45]
  GI50: 1.66 µM
  TGI: 3.05 µM
[46]
  GI50: 2.77 µM
  TGI: 7.79 µM
[47]
  GI50: 2.4 µM
  TGI: 10.1 µM
[48]
  GI50: 2.81 µM
  TGI: 12.8 µM
[49]
  GI50: 2.83 µM
  TGI: 12.4 µM
[50]
  GI50: 2.34 µM
  TGI: 9.47 µM
[51]
  GI50: 2.93 µM
  TGI: 14.8 µM
[52]
  GI50: 2.32 µM
  TGI: 12.2 µM
[53]
  GI50: 2.37 µM
  TGI: 8.15 µM
[54]
  GI50: 2.04 µM
  TGI: 9.31 µM
[55]
  GI50: 2.13 µM
  TGI: 7.53 µM
